For assay [1], the target named is T1, Histone deacetylase 1 (Homo sapiens, UniProt Q13547). In words: Inhibition of human full length C-terminal His/FLAG-tagged HDAC1 expressed in baculovirus infected Sf9 insect cells after 1 hr in presence of acetylated lysine substrate by fluorescence assay.
For assay [2], the target named is T2, Histone deacetylase 2 (Homo sapiens, UniProt Q92769). As to the kind of experiment: Inhibition of human full length C-terminal His-tagged HDAC2 expressed in baculovirus infected Sf9 insect cells after 1 hr in presence of acetylated lysine substrate by fluorescence assay.
Assay [3] deals with T3, Histone deacetylase 3/Nuclear receptor corepressor 2 (HDAC3/NCoR2) (Homo sapiens, UniProt O15379). In words: Inhibition of human full length C-terminal His-tagged HDAC3/N-terminal GST-tagged human NCOR2 co-expressed in baculovirus infected Sf9 insect cells after 1 hr in presence of acetylated lysine substrate by fluorescence assay.
The next assay is filed under the species Homo sapiens. As to the kind of experiment: Selectivity ratio of IC50 for human full length C-terminal His/FLAG-tagged HDAC1 expressed in baculovirus infected Sf9 insect cells to IC50 for human full length C-terminal His-tagged HDAC2 expressed in baculovirus infected Sf9 insect cells.
The target in assay [4] is T2, Histone deacetylase 2. As to the kind of experiment: Inhibition of human full length C-terminal His/FLAG-tagged HDAC2 expressed in baculovirus infected Sf9 cells preincubated for 3 hrs followed by fluorophore conjugated MAZ1600 substrate addition measured every 5 mins by fluorescence assay.
Assay [5] addresses T1, Histone deacetylase 1. As to the kind of experiment: Inhibition of recombinant full length human C-terminal FLAG/His-tagged HDAC1 expressed in baculovirus infected sf9 cells preincubated for 3 hrs followed by fluorophore conjugated MAZ1600 substrate addition measured every 5 mins by fluorescence assay.
The target of assay [6] is T3, Histone deacetylase 3/Nuclear receptor corepressor 2 (HDAC3/NCoR2). As to the kind of experiment: Inhibition of human full length C-terminal His-tagged HDAC3/N-terminal GST-tagged human NCOR2 (395 to 489 residues) co-expressed in baculovirus infected Sf9 insect cells preincubated for 3 hrs followed by fluorophore conjugated MAZ1600 substrate addition measured every 5 mins by fluorescence assay.

The target of assay [7] is T1, Histone deacetylase 1. In words: Inhibition of human full length C-terminal His/FLAG-tagged HDAC1 expressed in baculovirus infected Sf9 insect cells preincubated for 2 hrs followed by Fluor-de-Lys substrate addition measured after 30 mins by fluorescence assay. Type of assay: cell-based.
Assay [8] has as its target T2, Histone deacetylase 2. In words: Inhibition of human full length C-terminal FLAG-tagged HDAC2 expressed in baculovirus infected Sf9 insect cells preincubated for 2 hrs followed by Fluor-de-Lys substrate addition measured after 30 mins by fluorescence assay. Type of assay: cell-based.
Assay [9] concerns the target T3, Histone deacetylase 3/Nuclear receptor corepressor 2 (HDAC3/NCoR2). In words: Inhibition of human full length C-terminal His-tagged HDAC3/N-terminal GST-tagged human NCOR2 co-expressed in baculovirus infected Sf9 insect cells preincubated for 2 hrs followed by Fluor-de-Lys substrate addition measured after 30 mins by fluorescence assay. Type of assay: cell-based.

A further assay addresses Histone deacetylase 4 (Homo sapiens, UniProt P56524). As to the kind of experiment: Inhibition of human recombinant N-terminal GST-tagged/C-terminal His-tagged HDAC4 expressed in baculovirus infected insect cells preincubated for 2 hrs followed by Fluor-de-Lys substrate addition measured after 30 mins by fluorescence assay. Type of assay: cell-based.
In a further assay the target is Histone deacetylase 5 (Homo sapiens, UniProt Q9UQL6). As to the kind of experiment: Inhibition of human recombinant C-terminal His-tagged HDAC5 expressed in baculovirus infected insect cells preincubated for 2 hrs followed by Fluor-de-Lys substrate addition measured after 30 mins by fluorescence assay. Type of assay: cell-based.
The next assay has as its target T4, Histone deacetylase 7 (Homo sapiens, UniProt Q8WUI4).
T4 sequence (Q8WUI4 whole entry): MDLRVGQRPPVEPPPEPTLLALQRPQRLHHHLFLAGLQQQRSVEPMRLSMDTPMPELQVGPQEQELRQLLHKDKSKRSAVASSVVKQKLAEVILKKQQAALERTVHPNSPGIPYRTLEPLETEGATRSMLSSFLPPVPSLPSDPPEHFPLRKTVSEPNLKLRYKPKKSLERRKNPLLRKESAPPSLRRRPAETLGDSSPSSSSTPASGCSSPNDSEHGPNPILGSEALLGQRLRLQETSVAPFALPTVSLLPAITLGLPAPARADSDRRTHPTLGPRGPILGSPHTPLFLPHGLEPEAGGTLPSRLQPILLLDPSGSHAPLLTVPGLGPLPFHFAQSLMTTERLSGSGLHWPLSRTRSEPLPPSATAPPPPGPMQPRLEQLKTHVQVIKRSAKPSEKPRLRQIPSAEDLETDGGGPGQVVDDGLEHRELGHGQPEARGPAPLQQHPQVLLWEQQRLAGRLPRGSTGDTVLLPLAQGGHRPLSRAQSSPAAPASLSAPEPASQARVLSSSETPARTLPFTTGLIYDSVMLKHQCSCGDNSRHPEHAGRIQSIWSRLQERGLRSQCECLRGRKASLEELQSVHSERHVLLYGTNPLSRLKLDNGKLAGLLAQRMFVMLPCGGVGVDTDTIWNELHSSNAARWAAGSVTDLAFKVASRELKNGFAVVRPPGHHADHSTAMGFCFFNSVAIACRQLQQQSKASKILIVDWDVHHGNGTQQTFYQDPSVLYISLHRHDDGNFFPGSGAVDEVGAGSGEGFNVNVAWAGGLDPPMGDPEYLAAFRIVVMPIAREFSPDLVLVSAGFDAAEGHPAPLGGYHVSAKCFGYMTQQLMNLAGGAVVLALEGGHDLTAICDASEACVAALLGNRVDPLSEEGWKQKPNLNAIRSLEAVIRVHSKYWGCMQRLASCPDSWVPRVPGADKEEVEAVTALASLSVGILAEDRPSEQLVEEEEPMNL
As to the kind of experiment: Inhibition of human recombinant N-terminal GST-tagged HDAC7 expressed in baculovirus infected insect cells preincubated for 2 hrs followed by Fluor-de-Lys substrate addition measured after 30 mins by fluorescence assay. Type of assay: cell-based.

A further assay addresses T5, Histone deacetylase 8 (Homo sapiens, UniProt Q9BY41).
T5 sequence (Q9BY41 whole entry): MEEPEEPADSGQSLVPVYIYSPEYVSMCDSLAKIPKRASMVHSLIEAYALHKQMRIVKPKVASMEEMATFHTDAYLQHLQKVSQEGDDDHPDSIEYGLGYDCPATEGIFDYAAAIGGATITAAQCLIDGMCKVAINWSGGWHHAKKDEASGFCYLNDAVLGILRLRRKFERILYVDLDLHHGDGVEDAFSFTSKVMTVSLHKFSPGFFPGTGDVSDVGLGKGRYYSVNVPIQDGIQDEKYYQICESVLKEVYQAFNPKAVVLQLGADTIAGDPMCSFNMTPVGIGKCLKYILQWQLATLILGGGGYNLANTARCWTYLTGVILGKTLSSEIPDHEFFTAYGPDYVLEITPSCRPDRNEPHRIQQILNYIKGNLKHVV
As to the kind of experiment: Inhibition of HDAC8 (unknown origin) preincubated for 2 hrs followed by Fluor-de-Lys substrate addition measured after 30 mins by fluorescence assay.

Molecules are shown by their SMILES.

A word on the IC50: it is the concentration that gives 50% inhibition.

T2 sequence (Q92769 whole entry): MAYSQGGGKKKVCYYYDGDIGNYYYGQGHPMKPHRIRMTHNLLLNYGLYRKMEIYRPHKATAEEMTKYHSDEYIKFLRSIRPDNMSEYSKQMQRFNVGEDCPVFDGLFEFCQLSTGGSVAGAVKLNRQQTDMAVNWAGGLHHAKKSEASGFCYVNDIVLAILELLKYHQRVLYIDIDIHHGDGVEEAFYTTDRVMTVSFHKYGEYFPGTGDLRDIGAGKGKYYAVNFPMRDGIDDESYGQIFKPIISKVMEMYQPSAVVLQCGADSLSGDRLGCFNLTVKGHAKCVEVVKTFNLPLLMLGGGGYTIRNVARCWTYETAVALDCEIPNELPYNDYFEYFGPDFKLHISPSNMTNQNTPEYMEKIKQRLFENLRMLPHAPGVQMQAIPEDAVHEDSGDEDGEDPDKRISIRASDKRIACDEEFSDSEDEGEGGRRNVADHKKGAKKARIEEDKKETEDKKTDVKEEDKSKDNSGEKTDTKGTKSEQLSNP
T3 sequence (O15379 whole entry): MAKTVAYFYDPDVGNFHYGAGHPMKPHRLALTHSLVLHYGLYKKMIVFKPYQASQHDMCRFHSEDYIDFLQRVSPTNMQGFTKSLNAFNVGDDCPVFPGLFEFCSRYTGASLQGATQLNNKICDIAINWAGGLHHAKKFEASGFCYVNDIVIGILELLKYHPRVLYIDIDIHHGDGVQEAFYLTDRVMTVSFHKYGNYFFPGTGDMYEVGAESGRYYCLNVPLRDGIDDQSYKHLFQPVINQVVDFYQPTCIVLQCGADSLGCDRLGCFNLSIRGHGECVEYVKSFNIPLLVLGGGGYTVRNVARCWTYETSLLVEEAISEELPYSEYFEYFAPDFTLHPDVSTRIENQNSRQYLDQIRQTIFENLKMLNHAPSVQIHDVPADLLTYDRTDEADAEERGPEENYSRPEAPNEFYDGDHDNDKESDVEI
T3 sequence (Q9Y618 whole entry, further chain): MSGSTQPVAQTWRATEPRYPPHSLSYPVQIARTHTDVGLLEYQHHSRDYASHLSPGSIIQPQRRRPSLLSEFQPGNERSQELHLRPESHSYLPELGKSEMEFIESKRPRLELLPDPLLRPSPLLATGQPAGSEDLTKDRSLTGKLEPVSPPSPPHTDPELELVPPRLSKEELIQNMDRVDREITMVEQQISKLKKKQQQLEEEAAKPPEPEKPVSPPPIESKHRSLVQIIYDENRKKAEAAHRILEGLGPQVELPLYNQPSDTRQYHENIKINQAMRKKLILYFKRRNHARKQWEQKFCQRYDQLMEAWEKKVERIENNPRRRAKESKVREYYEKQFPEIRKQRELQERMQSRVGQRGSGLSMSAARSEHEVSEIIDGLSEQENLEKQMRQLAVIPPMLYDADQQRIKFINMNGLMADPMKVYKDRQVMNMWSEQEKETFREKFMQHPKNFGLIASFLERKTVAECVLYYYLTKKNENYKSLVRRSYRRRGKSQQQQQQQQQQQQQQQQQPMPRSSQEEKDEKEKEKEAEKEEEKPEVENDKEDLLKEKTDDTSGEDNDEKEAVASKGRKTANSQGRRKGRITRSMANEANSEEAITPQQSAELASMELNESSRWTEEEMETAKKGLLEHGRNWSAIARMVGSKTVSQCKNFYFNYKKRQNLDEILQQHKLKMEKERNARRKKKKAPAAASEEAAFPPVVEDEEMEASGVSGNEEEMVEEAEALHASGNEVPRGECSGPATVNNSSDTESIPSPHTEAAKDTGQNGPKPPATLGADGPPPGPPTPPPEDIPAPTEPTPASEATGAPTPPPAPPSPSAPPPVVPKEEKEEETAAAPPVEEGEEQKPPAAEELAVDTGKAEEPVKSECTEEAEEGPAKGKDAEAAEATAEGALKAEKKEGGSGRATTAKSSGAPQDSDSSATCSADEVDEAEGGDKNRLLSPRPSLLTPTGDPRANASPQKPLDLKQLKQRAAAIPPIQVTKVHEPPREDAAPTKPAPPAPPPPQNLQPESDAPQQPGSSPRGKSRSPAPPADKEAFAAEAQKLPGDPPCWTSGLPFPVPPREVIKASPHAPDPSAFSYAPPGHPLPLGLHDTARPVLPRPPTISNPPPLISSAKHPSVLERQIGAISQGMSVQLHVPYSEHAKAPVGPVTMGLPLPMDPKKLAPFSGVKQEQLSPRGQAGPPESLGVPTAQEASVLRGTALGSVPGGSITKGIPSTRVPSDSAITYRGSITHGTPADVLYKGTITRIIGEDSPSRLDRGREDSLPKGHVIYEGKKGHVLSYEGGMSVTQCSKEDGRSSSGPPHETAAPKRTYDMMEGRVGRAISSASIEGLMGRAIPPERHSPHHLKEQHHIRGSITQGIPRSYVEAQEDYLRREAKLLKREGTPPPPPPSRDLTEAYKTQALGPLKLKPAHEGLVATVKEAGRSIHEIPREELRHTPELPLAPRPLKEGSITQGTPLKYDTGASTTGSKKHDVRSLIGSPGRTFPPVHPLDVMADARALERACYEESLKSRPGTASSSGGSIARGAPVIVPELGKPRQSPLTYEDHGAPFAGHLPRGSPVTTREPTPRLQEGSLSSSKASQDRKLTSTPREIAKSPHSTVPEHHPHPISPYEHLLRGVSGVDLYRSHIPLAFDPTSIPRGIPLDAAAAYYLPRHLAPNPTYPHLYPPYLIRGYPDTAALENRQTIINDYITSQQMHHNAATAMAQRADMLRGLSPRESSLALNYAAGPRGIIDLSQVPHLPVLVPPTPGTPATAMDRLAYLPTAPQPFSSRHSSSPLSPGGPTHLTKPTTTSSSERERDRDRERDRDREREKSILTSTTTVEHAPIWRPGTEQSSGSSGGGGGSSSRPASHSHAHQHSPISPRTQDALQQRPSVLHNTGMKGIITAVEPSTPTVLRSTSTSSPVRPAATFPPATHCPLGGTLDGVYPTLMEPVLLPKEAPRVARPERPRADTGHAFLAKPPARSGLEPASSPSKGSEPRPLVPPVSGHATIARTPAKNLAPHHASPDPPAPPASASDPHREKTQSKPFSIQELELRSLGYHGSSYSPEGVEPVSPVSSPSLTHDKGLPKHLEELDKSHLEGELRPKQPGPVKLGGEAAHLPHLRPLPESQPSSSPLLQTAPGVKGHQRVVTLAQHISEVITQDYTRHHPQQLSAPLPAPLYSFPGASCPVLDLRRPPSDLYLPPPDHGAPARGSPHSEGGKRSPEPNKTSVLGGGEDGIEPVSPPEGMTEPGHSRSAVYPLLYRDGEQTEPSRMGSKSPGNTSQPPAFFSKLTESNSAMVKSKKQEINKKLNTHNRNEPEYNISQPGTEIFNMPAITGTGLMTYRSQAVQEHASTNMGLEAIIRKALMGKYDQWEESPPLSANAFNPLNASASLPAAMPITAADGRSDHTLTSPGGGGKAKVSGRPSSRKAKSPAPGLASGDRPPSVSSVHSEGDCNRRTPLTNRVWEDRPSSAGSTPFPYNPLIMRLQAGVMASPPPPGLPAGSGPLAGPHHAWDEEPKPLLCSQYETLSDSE
T1 sequence (Q13547 whole entry): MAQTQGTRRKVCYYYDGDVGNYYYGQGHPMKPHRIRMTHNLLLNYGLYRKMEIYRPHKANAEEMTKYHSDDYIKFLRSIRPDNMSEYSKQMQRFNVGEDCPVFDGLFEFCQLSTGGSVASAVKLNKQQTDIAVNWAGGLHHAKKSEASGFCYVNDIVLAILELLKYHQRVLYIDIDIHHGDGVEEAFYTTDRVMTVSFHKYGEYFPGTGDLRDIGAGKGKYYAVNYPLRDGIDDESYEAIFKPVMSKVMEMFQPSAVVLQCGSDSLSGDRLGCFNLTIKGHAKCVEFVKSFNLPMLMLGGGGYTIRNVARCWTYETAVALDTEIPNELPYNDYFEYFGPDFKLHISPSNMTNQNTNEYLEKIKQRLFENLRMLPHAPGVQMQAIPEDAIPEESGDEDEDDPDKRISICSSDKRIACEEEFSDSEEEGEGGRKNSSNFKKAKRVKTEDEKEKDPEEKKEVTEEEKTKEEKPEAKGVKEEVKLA
Chain of Histone deacetylase 4 (P56524 whole entry): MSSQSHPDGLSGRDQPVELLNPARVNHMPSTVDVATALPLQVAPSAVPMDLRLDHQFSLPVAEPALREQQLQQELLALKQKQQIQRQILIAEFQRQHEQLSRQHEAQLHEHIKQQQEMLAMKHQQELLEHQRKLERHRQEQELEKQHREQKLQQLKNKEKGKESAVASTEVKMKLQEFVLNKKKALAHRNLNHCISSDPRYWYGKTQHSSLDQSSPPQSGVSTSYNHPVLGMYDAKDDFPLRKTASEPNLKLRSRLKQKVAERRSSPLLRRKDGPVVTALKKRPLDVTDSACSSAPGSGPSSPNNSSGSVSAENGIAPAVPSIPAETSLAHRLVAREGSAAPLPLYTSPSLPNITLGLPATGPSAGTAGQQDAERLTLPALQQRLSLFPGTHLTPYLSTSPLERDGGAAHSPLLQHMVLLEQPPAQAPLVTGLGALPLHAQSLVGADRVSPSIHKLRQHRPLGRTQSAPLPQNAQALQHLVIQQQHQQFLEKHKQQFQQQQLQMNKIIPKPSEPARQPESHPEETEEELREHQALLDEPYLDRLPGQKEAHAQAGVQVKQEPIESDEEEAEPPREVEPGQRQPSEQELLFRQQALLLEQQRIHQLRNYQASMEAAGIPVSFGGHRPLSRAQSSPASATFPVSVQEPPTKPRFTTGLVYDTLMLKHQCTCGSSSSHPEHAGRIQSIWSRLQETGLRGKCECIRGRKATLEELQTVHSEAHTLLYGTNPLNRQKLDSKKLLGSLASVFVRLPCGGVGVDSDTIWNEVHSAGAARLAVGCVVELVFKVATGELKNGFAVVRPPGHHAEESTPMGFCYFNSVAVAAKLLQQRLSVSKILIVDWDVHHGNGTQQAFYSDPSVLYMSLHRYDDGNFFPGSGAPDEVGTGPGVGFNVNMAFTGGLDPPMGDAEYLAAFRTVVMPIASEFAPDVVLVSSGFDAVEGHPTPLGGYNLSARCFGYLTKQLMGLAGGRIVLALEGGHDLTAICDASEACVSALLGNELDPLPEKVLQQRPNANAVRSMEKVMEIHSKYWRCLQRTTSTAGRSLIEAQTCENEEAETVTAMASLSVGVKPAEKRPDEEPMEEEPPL

On to `O=C(/C=C(\CO)c1ccccc1)c1ccccc1`, for which the IC50 amounted to 2740 nM at Histone deacetylase 1 [1], 170 nM at Histone deacetylase 2 [2] and 50000 nM in assay [3]. For the same compound, the Ratio IC50 in the assay filed under Homo sapiens is 20.
Consider `C[C@H](CO)N1C[C@H](C)[C@H](CN(C)Cc2ccc(C(=O)Nc3ccccc3N)cc2)Oc2ccc(N(C)C)cc2CC1=O`, for which the IC50 is 560 nM against Histone deacetylase 2 [4], 69 nM on Histone deacetylase 1 [5] and 1300 nM in assay [6].
For `Nc1ccccc1NC(=O)CCCCCC(=O)Nc1ccccc1`, the IC50 against Histone deacetylase 1 [7] is 199 nM; against Histone deacetylase 2 [8] it was 1590 nM; in [9], 69 nM; at Histone deacetylase 4, more than 180000 nM; at Histone deacetylase 5, more than 180000 nM; at Histone deacetylase 7, more than 180000 nM. The midpoint of inhibition on Histone deacetylase 8, the IC50, lay at 5000 nM.

Source of the values: ChEMBL document CHEMBL4033774, “Class I HDAC Inhibitors: Potential New Epigenetic Therapeutics for Alcohol Use Disorder (AUD)” (J Med Chem, 2018).
